Patent US12257237B2 (priority 2017, dated 2025)

Test system: DD013 dedifferentiated liposarcoma
Assay: Antitumour activity in DD013 dedifferentiated liposarcoma xenograft model
Type: in vivo, Athymic nude mice
Conditions: for optimal T/C: day 50
Protocol: Experiments were performed with female Athymic nude mice, 9-10 weeks old obtained from Harlan Laboratories (Udine, Italy). They were maintained under Specific Pathogen Free conditions with constant temperature and humidity, according to the institutional guidelines.
Tumour growth mice was monitored two/three times a week (depending on tumour growth rate, to avoid unnecessary stress to the animals) by Vernier caliper. Mice were sacrificed when tumour reached a mean weight of 2±0.5 gr. The antitumour activity will be expressed as T/C %, where T and C were the mean tumour weight of treated and control groups, respectively. Mice were monitored daily and weighted at least two times a week. Tolerability was evaluated on the basis of body weight loss (BWL) and clinical observation.
Statistical analysis was performed with GraphPad Prism version 6.01 software (GraphPad software, Inc., La Jolla, CA, USA). ANOVA test was performed to evaluate if there were statistically significant differences between treated and control groups.
Briefly, xenografts were obtained by transplanting 3-4 mm tumour fragments s.c. in the flanks of mice. The growing tumour masses were measured with the aid of a Vernier caliper, and the tumour weights (TW, 1 mm^3=1 mg) were calculated by the formula: length×(width) 2/2. When tumour load achieved about 200-400 mg, mice were randomized into the experimental groups.

Cn1c(CCCCCCC(=O)NO)nc2cc(N(CCCl)CCCl)ccc21 [EDO-S101, 7-(5-(bis(2-chloroethyl)amino)-1-methyl-1H-benzo[d]imidazol-2-yl)-N-hydroxyheptanamide]
optimal T/C (40 mg/kg i.v. q7dx3): 27.2% | effect on tumour growth (40 mg/kg q7dx3, first cycle): reduced tumour growth, but without a complete arrest | effect of second cycle on tumour growth (40 mg/kg, second cycle from day 50): promoted tumour growth arrest | optimal T/C (60 mg/kg i.v. q7dx3): 14% | effect on tumour growth (60 mg/kg, first cycle): induced tumour growth arrest | effect of second cycle on tumour growth (60 mg/kg, second cycle from day 72): sustained tumour growth arrest | optimal T/C (80 mg/kg i.v. single dose): 18% | effect on tumour growth (80 mg/kg, first cycle): induced tumour growth arrest | effect of second cycle on tumour growth (80 mg/kg, second cycle from day 58): Tumour growth arrest was also observed | DD0113 tumour weight, Mean (EDO40: EDO-S101 40 mg/kg q7dx3, day 23 from inoculum): 198.6 mg | DD0113 tumour weight, Mean (EDO40: EDO-S101 40 mg/kg q7dx3, day 26 from inoculum): 283.6 mg | DD0113 tumour weight, Mean (EDO40: EDO-S101 40 mg/kg q7dx3, day 29 from inoculum): 319.2 mg | DD0113 tumour weight, Mean (EDO40: EDO-S101 40 mg/kg q7dx3, day 33 from inoculum): 394.4 mg | DD0113 tumour weight, Mean (EDO40: EDO-S101 40 mg/kg q7dx3, day 36 from inoculum): 380.3 mg | DD0113 tumour weight, Mean (EDO40: EDO-S101 40 mg/kg q7dx3, day 40 from inoculum): 433.4 mg | DD0113 tumour weight, Mean (EDO40: EDO-S101 40 mg/kg q7dx3, day 43 from inoculum): 451.3 mg | DD0113 tumour weight, Mean (EDO40: EDO-S101 40 mg/kg q7dx3, day 47 from inoculum): 507.4 mg | DD0113 tumour weight, Mean (EDO40: EDO-S101 40 mg/kg q7dx3, day 50 from inoculum): 570.5 mg | DD0113 tumour weight, Mean (EDO40: EDO-S101 40 mg/kg q7dx3, day 54 from inoculum): 599.5 mg | DD0113 tumour weight, Mean (EDO40: EDO-S101 40 mg/kg q7dx3, day 58 from inoculum): 584.1 mg | DD0113 tumour weight, Mean (EDO40: EDO-S101 40 mg/kg q7dx3, day 62 from inoculum): 677.9 mg | DD0113 tumour weight, Mean (EDO40: EDO-S101 40 mg/kg q7dx3, day 65 from inoculum): 677.8 mg | DD0113 tumour weight, Mean (EDO40: EDO-S101 40 mg/kg q7dx3, day 69 from inoculum): 703.2 mg | DD0113 tumour weight, Mean (EDO40: EDO-S101 40 mg/kg q7dx3, day 72 from inoculum): 669.8 mg | DD0113 tumour weight, Mean (EDO40: EDO-S101 40 mg/kg q7dx3, day 75 from inoculum): 666.1 mg | DD0113 tumour weight, Mean (EDO40: EDO-S101 40 mg/kg q7dx3, day 79 from inoculum): 756.8 mg | DD0113 tumour weight, Mean (EDO40: EDO-S101 40 mg/kg q7dx3, day 83 from inoculum): 683.9 mg | DD0113 tumour weight, Mean (EDO40: EDO-S101 40 mg/kg q7dx3, day 87 from inoculum): 935.9 mg | DD0113 tumour weight, Mean (EDO40: EDO-S101 40 mg/kg q7dx3, day 90 from inoculum): 1022.8 mg | DD0113 tumour weight, Mean (EDO40: EDO-S101 40 mg/kg q7dx3, day 94 from inoculum): 1226.5 mg | DD0113 tumour weight, Mean (EDO40: EDO-S101 40 mg/kg q7dx3, day 98 from inoculum): 1338.0 mg | DD0113 tumour weight, Mean (EDO40: EDO-S101 40 mg/kg q7dx3, day 100 from inoculum): 1553.1 mg | DD0113 tumour weight, Mean (EDO60: EDO-S101 60 mg/kg q7dx3, day 23 from inoculum): 199.2 mg | DD0113 tumour weight, Mean (EDO60: EDO-S101 60 mg/kg q7dx3, day 26 from inoculum): 272.5 mg | DD0113 tumour weight, Mean (EDO60: EDO-S101 60 mg/kg q7dx3, day 29 from inoculum): 310.4 mg | DD0113 tumour weight, Mean (EDO60: EDO-S101 60 mg/kg q7dx3, day 33 from inoculum): 373.1 mg | DD0113 tumour weight, Mean (EDO60: EDO-S101 60 mg/kg q7dx3, day 36 from inoculum): 334.2 mg | DD0113 tumour weight, Mean (EDO60: EDO-S101 60 mg/kg q7dx3, day 40 from inoculum): 371.2 mg | DD0113 tumour weight, Mean (EDO60: EDO-S101 60 mg/kg q7dx3, day 43 from inoculum): 339.5 mg | DD0113 tumour weight, Mean (EDO60: EDO-S101 60 mg/kg q7dx3, day 47 from inoculum): 330.2 mg | DD0113 tumour weight, Mean (EDO60: EDO-S101 60 mg/kg q7dx3, day 50 from inoculum): 310.9 mg | DD0113 tumour weight, Mean (EDO60: EDO-S101 60 mg/kg q7dx3, day 54 from inoculum): 321.1 mg | DD0113 tumour weight, Mean (EDO60: EDO-S101 60 mg/kg q7dx3, day 58 from inoculum): 303.3 mg | DD0113 tumour weight, Mean (EDO60: EDO-S101 60 mg/kg q7dx3, day 62 from inoculum): 298.3 mg | DD0113 tumour weight, Mean (EDO60: EDO-S101 60 mg/kg q7dx3, day 65 from inoculum): 291.6 mg | DD0113 tumour weight, Mean (EDO60: EDO-S101 60 mg/kg q7dx3, day 69 from inoculum): 334.6 mg | DD0113 tumour weight, Mean (EDO60: EDO-S101 60 mg/kg q7dx3, day 72 from inoculum): 423.7 mg | DD0113 tumour weight, Mean (EDO60: EDO-S101 60 mg/kg q7dx3, day 75 from inoculum): 432.9 mg | DD0113 tumour weight, Mean (EDO60: EDO-S101 60 mg/kg q7dx3, day 79 from inoculum): 475.7 mg | DD0113 tumour weight, Mean (EDO60: EDO-S101 60 mg/kg q7dx3, day 83 from inoculum): 376.9 mg
